US20090247516A1, “3- (BENZO [D] [1,3] DIOXOL-5-YLMETHYL) -4- (THIO) OXO-2- (THIO) OXO-AZOLIDIN-5-YLIDENE DERIVATIVES AS ANTIBACTERIAL AGENTS” (priority 2006, published 2009)
Like-named read-outs stand apart in the source and are kept apart here.

Assays:
E. coli MurD = E. coli MurD (Escherichia coli, UniProt P14900); test: MurD enzyme assay (Method A); type: biochemical; conditions: for activity at 100 µM: read-out: E. coli MurD RA at 100 μM inhibitor conc.
Procedure: Method A: MurD Enzyme Assay
The compounds are tested for their ability to inhibit the formation of UDP-MurNAc-L-Ala-D-[^14C]Glu in mixtures (50 μl) containing 0.1 M Tris-HCl, pH 8.6, 5 mM MgCl2, 5 mM ATP, 25 μM UDP-MurNAc-L-Ala, 25 μM D-[^14C]Glu, inhibitor (100 μM), DMSO (5%, v/v), and enzyme. After 30 min at 37° C., the reaction is stopped by addition of acetic acid (10 μl). After lyophilization, D-[^14C]Glu and of UDP-MurNAc-L-Ala-D-[^14C]Glu are separated by reverse-phase HPLC and quantitated by on-line scintillation counting. The residual activity is determined with respect to an assay with 5% DMSO and without inhibitor (taken as 100%). Values presented are means of duplicates.
IC50 values are determined with several concentrations of the inhibitor using the Hill equation:
(§1) log[vi/(vo−vi)]=−n log[l]+logK′
(§2) where vo is the rate without inhibitor, vi the rate in the presence of inhibitor and n the Hill number.

S. aureus MurE = biological target: T1, S. aureus MurE (Staphylococcus aureus, UniProt Q2FZP6); test: MurE enzyme assay (Method B); type: biochemical; conditions: for activity at 100 µM: residual activity at 100 μM inhibitor, assay with 5% DMSO and without inhibitor taken as 100%, means of duplicates, read-out: S. aureus MurE RA at 100 μM inhibitor conc.; for IC50: several inhibitor concentrations, Hill equation
T1 sequence (Q2FZP6 1-493): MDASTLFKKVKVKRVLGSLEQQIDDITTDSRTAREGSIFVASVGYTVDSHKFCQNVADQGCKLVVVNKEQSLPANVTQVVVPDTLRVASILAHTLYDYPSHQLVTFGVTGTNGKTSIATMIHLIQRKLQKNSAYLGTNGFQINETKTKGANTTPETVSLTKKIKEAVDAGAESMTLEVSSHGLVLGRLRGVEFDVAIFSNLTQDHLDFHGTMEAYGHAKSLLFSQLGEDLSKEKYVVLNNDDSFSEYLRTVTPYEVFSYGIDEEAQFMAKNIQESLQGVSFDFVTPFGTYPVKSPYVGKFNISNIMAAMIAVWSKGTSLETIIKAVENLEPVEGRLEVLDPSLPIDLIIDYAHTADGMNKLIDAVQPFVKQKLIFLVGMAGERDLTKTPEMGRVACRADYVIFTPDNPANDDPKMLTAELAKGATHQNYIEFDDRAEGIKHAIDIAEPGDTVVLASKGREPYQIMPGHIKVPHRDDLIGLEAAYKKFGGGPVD
Procedure: Method B: MurE Enzyme Assay
The compounds are tested for their ability to inhibit the formation of UDP-MurNAc-L-Ala-γ-D-Glu-L-[^14C]Lys in mixtures (50 μl) containing 0.1 M Tris-HCl, pH 8.6, 15 mM MgCl2, 5 mM ATP, 100 μM UDP-MurNAc-L-Ala-γ-D-Glu, 200 μM L-[^14C]Lys (50,000 cpm), inhibitor (100 μM), DMSO (5%, v/v), and enzyme from S. aureus. After 30 min at 37° C., the reaction is stopped by addition of acetic acid (10 μl). After lyophilization, L-[^14C]Lys and of UDP-MurNAc-L-Ala-Y-D-Glu-L-[^14C]Lys are separated by reverse-phase HPLC on Nucleosil 100C18 5U (150×4.6 mm) in 50 mM ammonium formate, pH 4.7, at 0.6 ml/min, and quantitated by on-line scintillation counting using the Quicksafe Flow 2 scintillating fluid. The residual activity is determined with respect to an assay with 5% DMSO and without inhibitor (taken as 100%). Values presented are means of duplicates.
IC50 values were determined with several concentrations of the inhibitor using the Hill equation:
as §1, §2

[1] = residual activity at 100 μM inhibitor, assay with 5% DMSO and without inhibitor taken as 100%, means of duplicates

Chain of E. coli MurD (P14900 whole entry): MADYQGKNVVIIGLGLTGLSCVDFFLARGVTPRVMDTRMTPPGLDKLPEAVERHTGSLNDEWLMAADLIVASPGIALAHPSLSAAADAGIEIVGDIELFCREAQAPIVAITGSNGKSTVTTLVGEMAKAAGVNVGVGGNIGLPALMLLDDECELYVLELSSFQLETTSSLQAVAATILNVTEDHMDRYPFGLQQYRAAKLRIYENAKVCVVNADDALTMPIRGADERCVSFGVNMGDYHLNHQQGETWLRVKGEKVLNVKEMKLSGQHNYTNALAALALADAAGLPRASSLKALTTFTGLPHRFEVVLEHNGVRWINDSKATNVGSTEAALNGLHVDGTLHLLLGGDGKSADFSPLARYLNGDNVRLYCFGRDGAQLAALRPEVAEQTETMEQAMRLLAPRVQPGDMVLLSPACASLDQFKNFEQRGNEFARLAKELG

| Compound | IC50 (E. coli MurD) [µM] | activity at 100 µM (E. coli MurD; [1]) [%] | activity at 100 µM (S. aureus MurE) [%] | IC50 (S. aureus MurE) [µM] | activity at 100 µM (E. coli MurD) [%] |
| --- | --- | --- | --- | --- | --- |
| O=C1/C(=C/c2cccc(O)c2)SC(=S)N1Cc1ccc2c(c1)OCO2 [Example 10, (Z)-3-(benzo[d][1,3]dioxol-5-yl-methyl)-5-(3-hydroxybenzylidene)-2-thioxothiazolidin-4-one] | > 100 | 97 | 31 | 13 | – |
| O=C1/C(=C/c2cccc([N+](=O)[O-])c2)SC(=S)N1Cc1ccc2c(c1)OCO2 [Example 7, (Z)-3-(benzo[d][1,3]dioxol-5-yl-methyl)-5-(3-nitrobenzylidene)-2-thioxothiazolidin-4-one] | > 100 | 98 | 19 | 7 | – |
| CNc1nc2ccccn2c(=O)c1/C=C1\SC(=S)N(Cc2ccc3c(c2)OCO3)C1=O [Example 2, (Z)-3-(benzo[d][1,3]dioxol-5-yl-methyl)-5-((2-(methylamino)-4-oxo-4H-pyrido[1,2-a]pyrimidin-3-yl)methylene)-2-thioxothiazolidin-4-one] | 111 | – | 7 | 4 | 22 |
| O=C1/C(=C/c2c(NCCCO)nc3ccccn3c2=O)SC(=S)N1Cc1ccc2c(c1)OCO2 [Example 1, (Z)-3-(benzo[d][1,3]dioxol-5-yl-methyl)-5-((2-(3-hydroxypropylamino)-4-oxo-4H-pyrido[1,2-a]pyrimidin-3-yl)methylene)-2-thioxothiazolidin-4-one] | > 100 | 77 | 82 | > 100 | – |
| O=C1/C(=C/c2ccccn2)SC(=S)N1Cc1ccc2c(c1)OCO2 [Example 6, (Z)-3-(benzo[d][1,3]dioxol-5-yl-methyl)-5-(pyridin-2-yl-methylene)-2-thioxothiazolidin-4-one] | > 100 | 99 | 5 | 37 | – |
| CCN(CC)c1ccc(/C=C2\SC(=S)N(Cc3ccc4c(c3)OCO4)C2=O)cc1 [Example 12, (Z)-3-(benzo[d][1,3]dioxol-5-yl-methyl)-5-(4-(diethylamino)benzylidene)-2-thioxothiazolidin-4-one] | > 100 | 78 | 59 | > 100 | – |
| COc1ccc(/C=C2\SC(=S)N(Cc3ccc4c(c3)OCO4)C2=O)c(OC)c1 [Example 14, (Z)-3-(benzo[d][1,3]dioxol-5-yl-methyl)-5-(2,4-dimethoxybenzylidene)-2-thioxothiazolidin-4-one] | > 100 | 72 | 67 | > 100 | – |
| O=C1/C(=C/c2ccccc2O)SC(=S)N1Cc1ccc2c(c1)OCO2 [Example 8, (Z)-3-(benzo[d][1,3]dioxol-5-yl-methyl)-5-(2-hydroxybenzylidene)-2-thioxothiazolidin-4-one] | > 100 | 100 | 23 | 1.5 | – |
| N#Cc1nc(/C=C2/SC(=S)N(Cc3ccc4c(c3)OCO4)C2=O)oc1N1CCOCC1 [Example 9, (E)-2-((3-(benzo[d][1,3]dioxol-5-yl-methyl)-4-oxo-2-thioxothiazolidin-5-ylidene)methyl)-5-morpholinooxazole-4-carbonitrile] | > 100 | 98 | 17 | 51 | – |
| CN(C)c1ccc(/C=C2\SC(=S)N(Cc3ccc4c(c3)OCO4)C2=O)cc1 [Example 11, (Z)-3-(benzo[d][1,3]dioxol-5-yl-methyl)-5-(4-(dimethylamino)benzylidene)-2-thioxothiazolidin-4-one] | > 100 | 95 | 25 | 4.5 | – |
| O=C1/C(=C/c2c(NCCOCCO)nc3ccccn3c2=O)SC(=S)N1Cc1ccc2c(c1)OCO2 [Example 5, (Z)-3-(benzo[d][1,3]dioxol-5-yl-methyl)-5-((2-(2-(2-hydroxyethoxy)ethylamino)-4-oxo-4H-pyrido[1,2-a]pyrimidin-3-yl)methylene)-2-thioxothiazolidin-4-one] | > 100 | 71 | 10 | 14 | – |
| O=C1/C(=C/c2c(NCC3CCCO3)nc3ccccn3c2=O)SC(=S)N1Cc1ccc2c(c1)OCO2 (centres unmarked) [Example 3, (Z)-3-(benzo[d][1,3]dioxol-5-yl-methyl)-5-((4-oxo-2-((tetrahydrofuran-2-yl)methylamino)-4H-pyrido[1,2-a]pyrimidin-3-yl)methylene)-2-thioxothiazolidin-4-one] | 24 | 7 | 4 | 5 | – |
| O=C1/C(=C/c2c(NCCO)nc3ccccn3c2=O)SC(=S)N1Cc1ccc2c(c1)OCO2 [Example 4, (Z)-3-(benzo[d][1,3]dioxol-5-yl-methyl)-5-((2-(2-hydroxyethylamino)-4-oxo-4H-pyrido[1,2-a]pyrimidin-3-yl)methylene)-2-thioxothiazolidin-4-one] | 15 | 26 | 4 | 4 | – |
| COc1ccccc1/C=C1\SC(=S)N(Cc2ccc3c(c2)OCO3)C1=O [Example 13, (Z)-3-(benzo[d][1,3]dioxol-5-yl-methyl)-5-(2-methoxybenzylidene)-2-thioxothiazolidin-4-one] | > 100 | 75 | 90 | > 100 | – |
